Measurements reported in the NIST ThermoML archive (doi:10.1021/je900646u).
± gives the expanded uncertainty stated by the source.

Conditions: Crystal; DTA

Work on Nc1ccc(O)c(C(=O)O)c1 [5-aminosalicylic acid] yielded a Normal melting temperature of 281.00 ± 0.5 °C.
